Here are results for 1 compound from patent US12364673B2, “Methods and compositions for treating lysosomal storage disorders: ambroxol as treatment agent for Mucopolysaccharidoses III (Sanfilippo syndrome)” (Lysosomal and Rare Disorders Research and Treatment Center, …, priority 2019, dated 2025).

For data set [1], the system named is autophagy fusion with the lysosome. In words: Autophagy fusion staining with DALGreen detection reagent. Format: cell-based, human.
The test system of data set [2] is acidic lysosomes. In words: Lysosome staining with LysoTracker Red DND-99 dye. Format: cell-based, human. The method, then: To examine the effects of ambroxol on autophagy-lysosomal pathway, the autophagy dye […] and lysosome marker LysoTracker Red were used. […] The autophagy fusion was studied using autophagy detection reagent […] fluorescence probe stained autophagosome on late-phase autophagy when autophagosome fused with a lysosome. Lysosome organelles were analyzed using LysoTracker Red DND-99 red-fluorescent dye which stained acidic organelles in live cells. PBMC were isolated from the patient with MPS III-B disease, incubated five days with ambroxol, and then were stained. […] Macrophages derived from a patient with MPS III Type C.

For data set [3], the system named is PBMC. Kind of data set: ATP production of ambroxol incubated PBMC. Format: cell-based, human. As to conditions: 100 μM ambroxol.
For data set [4], the system named is PBMC. In words: Cell viability of ambroxol incubated PBMC. Format: cell-based, human. As to conditions: 100 μM ambroxol.
Data set [5] concerns the target T1, glucocerebrosidase (GCase) (Homo sapiens, UniProt P04062).
T1 sequence (P04062 40-536): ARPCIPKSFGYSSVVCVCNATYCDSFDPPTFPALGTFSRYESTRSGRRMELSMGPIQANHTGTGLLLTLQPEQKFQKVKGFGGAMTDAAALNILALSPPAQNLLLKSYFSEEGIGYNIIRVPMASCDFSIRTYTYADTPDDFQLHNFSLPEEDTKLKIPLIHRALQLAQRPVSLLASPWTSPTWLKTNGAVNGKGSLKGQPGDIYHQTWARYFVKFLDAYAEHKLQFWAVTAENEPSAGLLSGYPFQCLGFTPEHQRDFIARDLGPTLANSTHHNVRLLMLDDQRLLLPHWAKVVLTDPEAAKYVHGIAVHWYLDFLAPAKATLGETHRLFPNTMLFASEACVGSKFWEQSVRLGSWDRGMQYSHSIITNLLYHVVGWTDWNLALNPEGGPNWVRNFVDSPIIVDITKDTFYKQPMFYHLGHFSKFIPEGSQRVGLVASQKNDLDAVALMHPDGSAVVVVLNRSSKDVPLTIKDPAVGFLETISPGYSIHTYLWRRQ
The note with it: pH 4.3, near lysosomal pH; cited from earlier work.

Data set [6] relates to N-acetyl-alpha-glucosaminidase (NAGLU). In words: NAGLU enzyme activity in patient-derived PBMC. Format: cell-based, human. As to conditions: PBMC from MPS III Type B patient, 5 days incubation. The method, then: PBMC were cultured for 5 days with an increasing concentration of ambroxol. […] We measured enzyme activity in PBMC (peripheral blood mononuclear cell) derived from MPS III Type B patients with NAGLU enzyme deficiency. After incubation for five days in the presence of 1, 10, and 100 μM of ambroxol, NAGLU enzyme activity was measured and compared negative control versus ambroxol incubated cells (FIG. 1). […] PBMC were cultured for 5 days with an increasing concentration of ambroxol.

For data set [7], the system named is heparan sulfate (HS). In words: Heparan sulfate ELISA in PBMC cell extracts. Format: cell-based, human. The method, then: To investigate the effect of ambroxol on HS degradation, the heparin sulfate ELISA assay (Aviva Systems Siology) was assessed. PBMC derived from healthy controls and MPS III patients were incubated with a concentration of ambroxol 1, 10 and 100 μM. PBMC after five days of incubation were collected and heparan sulfate levels were measured in cells extracts.

For data set [8], the system named is heparan-alpha-glucosaminide N-acetyltransferase (HGSNAT). Kind of data set: HGSNAT enzyme activity in PBMC. Format: cell-based, human. The method, then:
PBMC were cultured for 5 days with an increasing concentration of ambroxol.
HGSNAT enzyme activity was measured and compared as negative control versus ambroxol incubated PBMC derived from a patient with MPS III Type C (FIG. 2).

Data set [9] relates to lysosomal integral membrane protein-2 (LIMP-2). As to conditions: cited from earlier work.
[10] abbreviates: PBMC from patient with MPS III-B, five days with ambroxol.
Where [11] appears, read: macrophages from patient with MPS III Type C, 5 days with ambroxol.

SMILES strings stand for the structures.

As for `Nc1c(Br)cc(Br)cc1CN[C@H]1CC[C@H](O)CC1` [ambroxol, trans-4-(2-Amino-3,5-dibromobenzylamino)-cyclohexanol], the “autophagy fusion (DALGreen staining)” value was “significant increase” in [1] (PBMC from healthy control, five days with ambroxol) and “significant increase” in data set [1] (PBMC from two patients with MPS III-D, five days with ambroxol). In addition, the “activity of autophagy fusion (DALGreen staining)” value in data set [1] (setting [10]) and in data set [1] (setting [11]) was “increasing” throughout. Also, the “proportion of acidic lysosomes (LysoTracker Red staining)” value in [2] (setting [10]) and in data set [2] (setting [11]) was “significant increasing” each time. The lysosome function result in data set [2] (cells derived from healthy controls and MPS III-B, MPS III-C and MPS III-D patients (summary)) is given as “activates”. Also, the ATP production entry in data set [3] was “inhibition”. For the same compound, the cell viability result in [4] is “decreasing”. For the same compound, the “effect on GCase enzyme” value in data set [5] is on record as “activator”. In addition, the “NAGLU enzyme activity increase vs negative control” value in data set [6] (1 μM ambroxol) and in [6] (10 μM ambroxol) was 15% each time. Besides, in data set [6] (100 μM ambroxol), the NAGLU activity result is recorded as “Decreasing”. Moreover, the “heparan sulfate (HS) level” value in data set [7] (PBMC from MPS III-A patient, 5 days with ambroxol, vs negative control) is “decreased”; in [7] (PBMC from MPS III-B patient, 5 days, 10 μM ambroxol), “decreased”; in data set [7] (PBMC from MPS III-B patient, 5 days, 100 μM ambroxol), “decreased”; in data set [7] (PBMC from MPS III-C patient, 5 days with ambroxol, vs negative control), “decreasing”; in data set [7] (PBMC from MPS III-D patient, 5 days, 10 μM ambroxol), “decreased”; in data set [7] (PBMC from MPS III-D patient, 5 days, 100 μM ambroxol) it was “decreased”. In addition, the “heparan sulfate (HS) level” value in data set [7] (PBMC from healthy controls (n=4), 5 days with ambroxol, vs negative control) is “decreased”. Besides, the HGSNAT activity entry in data set [8] (PBMC from a healthy subject, ambroxol incubation (data not shown)) is on record as “no increase”; in data set [8] (PBMC from a patient with MPS III Type C, 5 days ambroxol incubation), “no increase”. In addition, the LIMP-2 level result in data set [9] is “increased”.
